What was measured:
M1 muscarinic receptor = target: T1, M1 muscarinic receptor (Homo sapiens, UniProt P11229); experiment: Functional mobilization of intracellular calcium (FLIPR) in M1-CHO cells; type: cell-based; settings: M1 receptor, calcium mobilization; for Emax: read-out: M1 Efficacy
T1 construct: expressed in transfected cells; host or cells: CHO (M1-CHO)
T1 sequence (P11229 1-460): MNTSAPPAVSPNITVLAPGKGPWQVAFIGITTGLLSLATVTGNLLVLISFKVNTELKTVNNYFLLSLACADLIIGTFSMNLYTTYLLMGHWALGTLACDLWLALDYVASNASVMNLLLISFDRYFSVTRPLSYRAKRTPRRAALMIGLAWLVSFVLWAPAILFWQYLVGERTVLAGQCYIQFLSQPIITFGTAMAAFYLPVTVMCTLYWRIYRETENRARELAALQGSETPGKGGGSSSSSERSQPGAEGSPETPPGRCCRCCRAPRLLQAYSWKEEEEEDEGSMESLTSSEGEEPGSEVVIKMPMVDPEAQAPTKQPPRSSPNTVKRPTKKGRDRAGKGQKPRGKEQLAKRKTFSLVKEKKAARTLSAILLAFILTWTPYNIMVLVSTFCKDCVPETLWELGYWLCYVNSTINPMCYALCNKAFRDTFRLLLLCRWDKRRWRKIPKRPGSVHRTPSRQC
Procedure: (§1) Functional Mobilization of Intracellular Calcium to Determine Muscarinic Receptor Activity:
(§2) CHO cells expressing muscarinic receptors (M1 to M5) are grown as monolayers in tissue culture flasks at 37° C. in a humidified atmosphere containing 5% CO2 and passaged every 3-5 days. The growth media is Dulbecco's modified eagles medium (DMEM, Gibco Cat# 12430-054), containing 25 mM Hepes and supplemented with Fetal Bovine Serum (Hyclone, cat# SH30071.03), 0.1 mM of MEM non-essential amino acids (GIBCO, Cat# 11140-050), 1 mM MEM Sodium Pyruvate (GIBCO Cat# 11360-070) and 100 units/ml of Penicillin G and 100 μg/ml of Streptomycin (GIBCO Cat# 15140-122). The recombinant muscarinic receptor cell lines are grown under antibiotic pressure with media containing 25 μg/ml zeocin and 500 μg/ml G418 (M1-CHO), 4 μg/ml puromycin, 50 μg/ml zeocin and 2.5 μg/ml blasticidin (M2 and M4-CHO) or 50 μg/ml zeocin and 4 μg/ml puromycin (M3 and M5-CHO).
(§3) Cells are harvested at 80-90% confluence using Versene (GIBCO Cat# 15040-066), collected by centrifugation and seeded 18-24 hrs prior to running the calcium assay at a density of 5,000 cells/well in back-walled, clear-bottomed 384-well plates (BD Biocoat, poly-D-lysine, Cat#356663). The day of the experiment, the cells are washed with a plate washer (Bioteck Instruments, ELX 405) using bath 1 buffer (140-mM NaCl, 4.5-mM KCl, 2-mM CaCl2, 1-mM MgCl2, 10-mM Hepes-Na, 10-mM Glucose, pH 7.4, with NaOH) containing 1 mM Probenecid. Next, the calcium dye Fluo-3 (25 μl/well of Fluo-3 AM at 4 μM, Molecular Probes F-1241, in Bath 1 buffer containing 1 mM Probenecid) is added to the 25 μl of Bath 1 remaining in each well after the plate wash and the dye is loaded at 37° C. in the tissue culture incubator for 60-90 min. The fluorescent dye is removed using the plate washer with Bath 1 containing 1 mM Probenecid, leaving 25 μl/well of this solution after the wash. Alternatively, cells can be loaded with the calcium indicator from Molecular Devices (Calcium 3 Assay Reagents, Cat # R7181) adding 5 μl of a 5× solution dye in Bath 1 containing 1 mM Probenecid (10 ml per dye flask cat# R7182 to generate a solution 20×) to 20 μl of the same buffer. After loading for 60 min, the experiment can be run without having to remove the dye.
(§4) Compounds are prepared at a 2× fold concentration in a 96-well plate (round bottom, Costar Corning cat# 3656), by reconstituting the pre-spotted compounds in bath 1 containing 1 mM probenecid. The final concentration DMSO is 0.5%, and the amount of DMSO is normalized across the assay plate. To determine an agonist action of the compounds on muscarinic receptors, the reconstituted compounds are added (25 μl compound/well) to the cell assay plate (containing 25 μl/well) using the multi-channel robotic system of the FLIPR 3 Instrument (Molecular Devices, Sunnyvale, Calif.). To determine a functional inhibitory action of the compounds on muscarinic receptors, the reconstituted compounds are added (25 μl compound/well) to the assay plate and pre-incubated for 15 min prior to adding 25 μl of Carbachol at 3× the EC80 for each muscarinic subtype. Alternatively, the compounds can be co-applied simultaneously with the agonist. In both assay modes, the fluorescence is recorded for 60 sec (excitation wavelength is […] and emission wavelength 540 nm) using the FLIPR 3 instrument.
(§5) The potency, efficacy and selectivity of the muscarinic compounds were evaluated by screening the compound activity across the whole family (M1 to M5 cells). Compounds were also screened for activity on other proteins such as other GPCRs and ion channels to determine selectivity on M4 receptors.

M4 muscarinic receptor = target: T2, M4 muscarinic receptor (Homo sapiens, UniProt P08173); experiment: Functional mobilization of intracellular calcium (FLIPR) in M4-CHO cells; type: cell-based; settings: M4 receptor, calcium mobilization; for Emax: read-out: M4 Efficacy
T2 construct: expressed in transfected cells; host or cells: CHO (M4-CHO)
T2 sequence (P08173 1-479): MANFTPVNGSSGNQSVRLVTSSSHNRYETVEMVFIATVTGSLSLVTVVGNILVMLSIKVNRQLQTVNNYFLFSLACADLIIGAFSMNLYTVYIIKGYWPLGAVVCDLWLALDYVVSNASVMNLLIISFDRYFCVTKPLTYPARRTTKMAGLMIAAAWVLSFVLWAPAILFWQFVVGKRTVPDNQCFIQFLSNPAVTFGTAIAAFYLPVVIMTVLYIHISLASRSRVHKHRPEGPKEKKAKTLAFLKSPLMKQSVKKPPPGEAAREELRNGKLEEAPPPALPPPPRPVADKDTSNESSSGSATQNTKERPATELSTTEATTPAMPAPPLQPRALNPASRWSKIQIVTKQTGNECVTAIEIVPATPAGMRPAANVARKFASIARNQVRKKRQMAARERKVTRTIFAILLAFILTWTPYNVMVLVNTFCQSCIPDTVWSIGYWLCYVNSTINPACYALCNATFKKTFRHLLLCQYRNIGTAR
Procedure: as §1, §2, §3, §4, §5

**Q.** `CCOC(=O)N1CCC(CN2CCC3(CC2)CN(C(C)=O)c2ccc(OC(F)(F)F)cc23)CC1` [compound 21] was tested. Which “M1 Activity” value (M1 muscarinic receptor) did it give?
**A.** xx (activity was measured to be between 0.1 μM and 1.0 μM)

**Q.** And the Emax (M1 muscarinic receptor)?
**A.** < 65%

**Q.** And the “M4 Activity” value (M4 muscarinic receptor)?
**A.** x (activity was measured to be greater than 1.0 μM)

**Q.** And the Emax (M4 muscarinic receptor)?
**A.** < 65%

**Q.** For `CCOC(=O)N1CCC(N2CCC3(CC2)CN(C(=O)N2CCCC2)c2ccc(F)cc23)CC1` [compound 22], which “M1 Activity” value (M1 muscarinic receptor) is on record?
**A.** xxx (activity was measured to be less than 0.1 μM)

**Q.** And the Emax (M1 muscarinic receptor)?
**A.** 65 to 85%

**Q.** What about the “M4 Activity” value (M4 muscarinic receptor) of the same molecule?
**A.** x (activity was measured to be greater than 1.0 μM)

**Q.** And the Emax (M4 muscarinic receptor)?
**A.** < 65%

**Q.** Which “M1 Activity” value (M1 muscarinic receptor) does the source give for `Cc1ccc2c(c1)C1(CCN([C@@H]3C[C@@H]4CC[C@@H]3C4)CC1)CN2` [compound 23] here?
**A.** xx (activity was measured to be between 0.1 μM and 1.0 μM)

**Q.** And the Emax (M1 muscarinic receptor)?
**A.** < 65%

**Q.** What about the “M4 Activity” value (M4 muscarinic receptor) of the same molecule?
**A.** x (activity was measured to be greater than 1.0 μM)

**Q.** What about the Emax (M4 muscarinic receptor) of the same molecule?
**A.** < 65%

**Q.** How did the “M1 Activity” value (M1 muscarinic receptor) turn out when `Cc1cc(C(=O)N2CC3(CCN(C4CC5CCC(C4)N5C(=O)OC(C)C)CC3)c3cc(F)ccc32)nn1C` (stereo not shown) [compound 24] was run?
**A.** xx (activity was measured to be between 0.1 μM and 1.0 μM)

**Q.** And the Emax (M1 muscarinic receptor)?
**A.** < 65%

**Q.** What about the “M4 Activity” value (M4 muscarinic receptor) of the same molecule?
**A.** x (activity was measured to be greater than 1.0 μM)

**Q.** What about the Emax (M4 muscarinic receptor) of the same molecule?
**A.** < 65%

**Q.** With `COCCOC(=O)N1CCC(CN2CCC3(CC2)CN(C(C)=O)c2ccc(F)cc23)CC1` [compound 26] as the molecule, how does the “M1 Activity” value (M1 muscarinic receptor) read?
**A.** xxx (activity was measured to be less than 0.1 μM)

**Q.** What about the Emax (M1 muscarinic receptor) of the same molecule?
**A.** 65 to 85%

**Q.** What about the “M4 Activity” value (M4 muscarinic receptor) of the same molecule?
**A.** xx (activity was measured to be between 0.1 μM and 1.0 μM)

**Q.** What about the Emax (M4 muscarinic receptor) of the same molecule?
**A.** < 65%

**Q.** Which “M1 Activity” value (M1 muscarinic receptor) does the source give for `CCC1CCC(N2CCC3(CC2)CN(C(C)=O)c2ccc(F)cc23)CC1` (stereo not shown) [compound 27] here?
**A.** xxx (activity was measured to be less than 0.1 μM)

**Q.** What about the Emax (M1 muscarinic receptor) of the same molecule?
**A.** 65 to 85%

**Q.** What about the “M4 Activity” value (M4 muscarinic receptor) of the same molecule?
**A.** xxx (activity was measured to be less than 0.1 μM)

**Q.** And the Emax (M4 muscarinic receptor)?
**A.** 65 to 85%

**Q.** What does the source list for `CCOC(=O)N1C2CCC1CC(N1CCC3(CC1)CN(C(=O)O[C@@H]1CCOC1)c1ccc(F)cc13)C2` (stereo partly shown) [compound 28]?
**A.** M1 Activity (M1 muscarinic receptor): xxx (activity was measured to be less than 0.1 μM); Emax (M1 muscarinic receptor): > 85%; M4 Activity (M4 muscarinic receptor): xx (activity was measured to be between 0.1 μM and 1.0 μM); Emax (M4 muscarinic receptor): 65 to 85%

**Q.** `CC(=O)N[C@H]1CC2(CCN(CC3CC4CCC3CC4)CC2)c2ccccc21` (stereo partly shown) [compound 29] was tested. Which “M1 Activity” value (M1 muscarinic receptor) did it give?
**A.** xxx (activity was measured to be less than 0.1 μM)

**Q.** What about the Emax (M1 muscarinic receptor) of the same molecule?
**A.** > 85%

**Q.** And the “M4 Activity” value (M4 muscarinic receptor)?
**A.** xxx (activity was measured to be less than 0.1 μM)

**Q.** What about the Emax (M4 muscarinic receptor) of the same molecule?
**A.** > 85%

**Q.** Which “M1 Activity” value (M1 muscarinic receptor) does the source give for `CCOC(=O)N1CCC(N2CCC3(CC2)CN(C(=O)OCC(C)C)c2ccc(F)cc23)CC1` [compound 30] here?
**A.** xxx (activity was measured to be less than 0.1 μM)

**Q.** And the Emax (M1 muscarinic receptor)?
**A.** > 85%

**Q.** And the “M4 Activity” value (M4 muscarinic receptor)?
**A.** xxx (activity was measured to be less than 0.1 μM)

**Q.** What about the Emax (M4 muscarinic receptor) of the same molecule?
**A.** > 85%

**Q.** What does the source list for `CCOC(=O)N1CCC(N2CCC3(CC2)C(=O)N(C)c2ccccc23)CC1` [compound 31]?
**A.** M1 Activity (M1 muscarinic receptor): xxx (activity was measured to be less than 0.1 μM); Emax (M1 muscarinic receptor): > 85%; M4 Activity (M4 muscarinic receptor): xxx (activity was measured to be less than 0.1 μM); Emax (M4 muscarinic receptor): 65 to 85%

**Q.** How did the “M1 Activity” value (M1 muscarinic receptor) turn out when `CN(C)C(=O)N1CC2(CCN(C3CC4CCC(C3)N4C(=O)OCCF)CC2)c2cc(F)ccc21` (stereo not shown) [compound 32] was run?
**A.** xxx (activity was measured to be less than 0.1 μM)

**Q.** What about the Emax (M1 muscarinic receptor) of the same molecule?
**A.** > 85%

**Q.** What about the “M4 Activity” value (M4 muscarinic receptor) of the same molecule?
**A.** xxx (activity was measured to be less than 0.1 μM)

**Q.** What about the Emax (M4 muscarinic receptor) of the same molecule?
**A.** 65 to 85%

**Q.** Which “M1 Activity” value (M1 muscarinic receptor) does the source give for `COCCOC(=O)N1C2CCC1CC(N1CCC3(CC1)CN(C(=O)OC)c1ccc(F)cc13)C2` (stereo not shown) [compound 33] here?
**A.** xxx (activity was measured to be less than 0.1 μM)

**Q.** What about the Emax (M1 muscarinic receptor) of the same molecule?
**A.** > 85%

**Q.** What about the “M4 Activity” value (M4 muscarinic receptor) of the same molecule?
**A.** xxx (activity was measured to be less than 0.1 μM)

**Q.** And the Emax (M4 muscarinic receptor)?
**A.** > 85%

**Q.** `CCOC(=O)N1CCC(CN2CCC3(CC2)CC(=O)Nc2ccccc23)CC1` [compound 34] was tested. Which “M1 Activity” value (M1 muscarinic receptor) did it give?
**A.** xxx (activity was measured to be less than 0.1 μM)

**Q.** What about the Emax (M1 muscarinic receptor) of the same molecule?
**A.** 65 to 85%

**Q.** And the “M4 Activity” value (M4 muscarinic receptor)?
**A.** xx (activity was measured to be between 0.1 μM and 1.0 μM)

**Q.** And the Emax (M4 muscarinic receptor)?
**A.** > 85%

— patent US7786141B2 (Vertex Pharmaceuticals Incorporated, priority 2004, dated 2010)
